How the values were obtained:
[1] = biological target: Alpha-1D adrenergic receptor (Homo sapiens) (UniProt P25100); settings: Compound concentration 10.0 uM
[2] = biological target: T1, Sodium-dependent dopamine transporter (Homo sapiens, UniProt Q01959); assay: GPCRScan assay: inhibition of DAT; set-up: radioligand conc. used [nm] 3.6 – 16.0, parental cells stable HEK
[3] = biological target: Neuronal acetylcholine receptor; alpha4/beta2 (Homo sapiens, UniProt P17787+P43681); assay: nAChR(a4/b2) Eurofins SafetyScreen (Other); set-up: species or system Blocker
[4] = biological target: 5-hydroxytryptamine receptor 1E (Homo sapiens) (UniProt P28566); settings: Compound concentration 10.0 uM
[5] = biological target: D(3) dopamine receptor (Homo sapiens) (UniProt P35462); settings: Compound concentration 10.0 uM
[6] = biological target: Rho-associated protein kinase 1 (Homo sapiens, UniProt Q13464); assay: ROCK1 Eurofins SafetyScreen (Other); set-up: species or system Inhibitor
Histamine H1 receptor [7] = biological target: T2, Histamine H1 receptor (Homo sapiens, UniProt P35367); settings: Compound concentration 10.0 uM
[8] = biological target: Glutamate receptor ionotropic, NMDA 2D (Homo sapiens, UniProt O15399+Q05586); assay: GluN2D-containing NMDA receptor (Ca2+ influx) assay (EC50)
[9] = biological target: Alpha-1A adrenergic receptor (Homo sapiens, UniProt P35348); assay: ADRA1A Eurofins SafetyScan (Receptor)
[10] = biological target: cGMP-inhibited 3',5'-cyclic phosphodiesterase 3A (Homo sapiens, UniProt Q14432); assay: PDE3A Eurofins SafetyScreen (Other); set-up: species or system Inhibitor
[11] = biological target: Glutamate receptor ionotropic, NMDA 1 (Homo sapiens, UniProt Q05586+Q13224); assay: NMDAR (1A/2B) Eurofins SafetyScreen (Other); set-up: species or system Blocker
[12] = biological target: T3, Delta-type opioid receptor (Homo sapiens, UniProt P41143); assay: OPRD1 Eurofins SafetyScan (Receptor)
Acetylcholinesterase = Acetylcholinesterase (Homo sapiens, UniProt P22303); assay: AChE Eurofins SafetyScreen (Other); set-up: species or system Inhibitor
[13] = biological target: Histamine H4 receptor (Homo sapiens) (UniProt Q9H3N8); settings: Compound concentration 10.0 uM
[14] = biological target: Cholecystokinin receptor type A (Homo sapiens, UniProt P32238); assay: CCKAR Eurofins SafetyScan (Receptor)
Histamine H1 receptor [15] = biological target: T2, Histamine H1 receptor; assay: HRH1 Eurofins SafetyScan (Receptor)
[16] = biological target: 5-hydroxytryptamine receptor 1D (Homo sapiens, UniProt P28221); assay: GPCRScan assay: inhibition of 5-HT1D; set-up: radioligand conc. used [nm] 1.0 – 2.0, parental cells HEKT
[17] = biological target: Prostaglandin G/H synthase 1 (Homo sapiens, UniProt P23219); assay: COX1 Eurofins SafetyScreen (Other); set-up: species or system Inhibitor
[18] = biological target: 5-hydroxytryptamine receptor 1B (Homo sapiens, UniProt P28222); assay: HTR1B Eurofins SafetyScan (Receptor)
[19] = biological target: Glutamate receptor ionotropic, NMDA 2B (Homo sapiens, UniProt Q05586+Q13224); assay: GluN2B-containing NMDA receptor (Ca2+ influx) assay (EC50)
[20] = biological target: Beta-1 adrenergic receptor (Homo sapiens, UniProt P08588); settings: Compound concentration 10.0 uM
[21] = biological target: Voltage-dependent L-type calcium channel subunit alpha-1C (Homo sapiens, UniProt Q13936); assay: CAV1.2 Eurofins SafetyScreen (Other); set-up: species or system Blocker
D(2) dopamine receptor [22] = biological target: T4, D(2) dopamine receptor (Homo sapiens, UniProt P14416); settings: Compound concentration 10.0 uM
Rattus norvegicus = species: Rattus norvegicus; settings: Compound concentration 10.0 uM
[23] = biological target: T1, Sodium-dependent dopamine transporter; settings: Compound concentration 10.0 uM
[24] = biological target: Muscarinic acetylcholine receptor M1 (Homo sapiens, UniProt P11229); assay: CHRM1 Eurofins SafetyScan (Receptor)
[25] = biological target: D(1B) dopamine receptor (Homo sapiens) (UniProt P21918); settings: Compound concentration 10.0 uM
D(2) dopamine receptor [26] = biological target: T4, D(2) dopamine receptor; assay: DRD2S Eurofins SafetyScan (Receptor)
[27] = biological target: T3, Delta-type opioid receptor; settings: Compound concentration 10.0 uM
[28] = biological target: Beta-3 adrenergic receptor (Homo sapiens) (UniProt P13945); settings: Compound concentration 10.0 uM
[29] = biological target: Gamma-aminobutyric acid receptor subunit alpha-1 (Homo sapiens, UniProt P14867); assay: GABAA Eurofins SafetyScreen (Other); set-up: species or system Blocker
[30] = biological target: Sodium channel protein type 5 subunit alpha (Homo sapiens, UniProt Q14524); assay: NAV1.5 Eurofins SafetyScreen (Other); set-up: species or system Blocker
[31] = biological target: Alpha-2B adrenergic receptor (Homo sapiens) (UniProt P18089); settings: Compound concentration 10.0 uM
[32] = biological target: Alpha-2A adrenergic receptor (Homo sapiens, UniProt P08913); assay: ADRA2A Eurofins SafetyScan (Receptor)
[33] = biological target: Potassium voltage-gated channel subfamily KQT member 1 (Homo sapiens, UniProt P51787); assay: KvLQT1/minK Eurofins SafetyScreen (Other); set-up: species or system Blocker
[34] = biological target: Muscarinic acetylcholine receptor M5 (Homo sapiens) (UniProt P08912); settings: Compound concentration 10.0 uM
[35] = biological target: 5-hydroxytryptamine receptor 1A (Homo sapiens, UniProt P08908); assay: HTR1A Eurofins SafetyScan (Receptor)
D(1A) dopamine receptor = D(1A) dopamine receptor (Homo sapiens, UniProt P21728); assay: DRD1 Eurofins SafetyScan (Receptor)
Histamine H2 receptor = Histamine H2 receptor (Homo sapiens, UniProt P25021); settings: Compound concentration 10.0 uM
Vasopressin V1a receptor = Vasopressin V1a receptor (Homo sapiens, UniProt P37288); assay: AVPR1A Eurofins SafetyScan (Receptor)
[36] = biological target: Beta-2 adrenergic receptor (Homo sapiens, UniProt P07550); assay: ADRB2 Eurofins SafetyScan (Receptor)
[37] = biological target: Sodium-dependent noradrenaline transporter (Homo sapiens, UniProt P23975); settings: Compound concentration 10.0 uM
[38] = biological target: T5, 5-hydroxytryptamine receptor 2A (Homo sapiens, UniProt P28223); assay: HTR2A Eurofins SafetyScan (Receptor)
[39] = biological target: T5, 5-hydroxytryptamine receptor 2A; settings: Compound concentration 10.0 uM
[40] = biological target: 5-hydroxytryptamine receptor 3A (Homo sapiens) (UniProt P46098); settings: Compound concentration 10.0 uM

T2 sequence (P35367 whole entry): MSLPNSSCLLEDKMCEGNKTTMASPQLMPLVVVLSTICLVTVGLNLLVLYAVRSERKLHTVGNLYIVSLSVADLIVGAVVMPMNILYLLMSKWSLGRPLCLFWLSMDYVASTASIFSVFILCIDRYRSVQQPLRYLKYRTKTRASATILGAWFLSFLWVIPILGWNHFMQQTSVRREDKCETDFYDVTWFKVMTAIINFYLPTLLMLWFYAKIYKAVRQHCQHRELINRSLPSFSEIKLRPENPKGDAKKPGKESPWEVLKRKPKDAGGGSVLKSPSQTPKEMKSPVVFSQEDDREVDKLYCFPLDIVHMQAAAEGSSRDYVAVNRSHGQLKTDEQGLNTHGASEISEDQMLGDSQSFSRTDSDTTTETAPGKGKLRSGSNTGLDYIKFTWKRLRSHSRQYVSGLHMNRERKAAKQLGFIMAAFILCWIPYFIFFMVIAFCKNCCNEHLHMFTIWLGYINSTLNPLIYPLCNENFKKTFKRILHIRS
T4 sequence (P14416 whole entry): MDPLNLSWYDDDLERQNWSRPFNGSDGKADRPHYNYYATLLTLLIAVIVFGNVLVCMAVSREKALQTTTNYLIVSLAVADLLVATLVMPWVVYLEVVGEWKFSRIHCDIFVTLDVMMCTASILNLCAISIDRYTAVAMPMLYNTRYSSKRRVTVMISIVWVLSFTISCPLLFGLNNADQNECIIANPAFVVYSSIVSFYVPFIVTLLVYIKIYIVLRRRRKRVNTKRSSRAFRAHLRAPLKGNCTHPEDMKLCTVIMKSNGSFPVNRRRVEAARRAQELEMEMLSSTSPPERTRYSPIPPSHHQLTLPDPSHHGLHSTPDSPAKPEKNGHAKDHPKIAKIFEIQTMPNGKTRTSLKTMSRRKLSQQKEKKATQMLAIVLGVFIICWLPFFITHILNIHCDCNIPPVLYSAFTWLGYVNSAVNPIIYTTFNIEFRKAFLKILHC
T1 sequence (Q01959 whole entry): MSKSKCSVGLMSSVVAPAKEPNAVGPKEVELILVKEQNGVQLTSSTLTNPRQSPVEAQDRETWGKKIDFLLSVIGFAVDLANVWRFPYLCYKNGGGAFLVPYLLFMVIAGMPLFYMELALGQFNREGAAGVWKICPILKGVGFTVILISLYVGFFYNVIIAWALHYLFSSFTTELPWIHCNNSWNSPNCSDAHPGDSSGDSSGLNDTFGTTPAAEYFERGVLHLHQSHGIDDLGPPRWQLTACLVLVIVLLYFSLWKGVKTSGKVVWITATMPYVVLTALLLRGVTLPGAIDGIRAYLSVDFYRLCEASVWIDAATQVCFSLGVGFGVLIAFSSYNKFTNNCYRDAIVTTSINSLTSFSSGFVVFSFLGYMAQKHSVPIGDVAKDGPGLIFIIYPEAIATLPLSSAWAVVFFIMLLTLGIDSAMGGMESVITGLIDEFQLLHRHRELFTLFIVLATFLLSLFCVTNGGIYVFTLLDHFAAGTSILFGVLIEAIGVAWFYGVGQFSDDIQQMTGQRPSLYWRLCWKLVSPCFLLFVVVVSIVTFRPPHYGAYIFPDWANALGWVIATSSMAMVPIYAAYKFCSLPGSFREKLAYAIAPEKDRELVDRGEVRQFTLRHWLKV
T5 sequence (P28223 whole entry): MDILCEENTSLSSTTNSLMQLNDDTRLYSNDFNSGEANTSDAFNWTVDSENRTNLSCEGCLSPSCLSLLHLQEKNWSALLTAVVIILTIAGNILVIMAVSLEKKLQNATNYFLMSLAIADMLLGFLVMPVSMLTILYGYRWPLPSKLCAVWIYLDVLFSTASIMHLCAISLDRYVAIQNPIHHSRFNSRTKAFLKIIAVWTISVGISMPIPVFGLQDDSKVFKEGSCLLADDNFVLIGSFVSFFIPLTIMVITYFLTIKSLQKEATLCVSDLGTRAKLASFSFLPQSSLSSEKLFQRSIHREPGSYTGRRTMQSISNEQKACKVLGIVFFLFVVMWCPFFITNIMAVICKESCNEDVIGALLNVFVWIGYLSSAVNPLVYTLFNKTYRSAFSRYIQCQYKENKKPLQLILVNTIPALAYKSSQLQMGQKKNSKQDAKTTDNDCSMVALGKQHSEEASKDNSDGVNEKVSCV
T3 sequence (P41143 whole entry): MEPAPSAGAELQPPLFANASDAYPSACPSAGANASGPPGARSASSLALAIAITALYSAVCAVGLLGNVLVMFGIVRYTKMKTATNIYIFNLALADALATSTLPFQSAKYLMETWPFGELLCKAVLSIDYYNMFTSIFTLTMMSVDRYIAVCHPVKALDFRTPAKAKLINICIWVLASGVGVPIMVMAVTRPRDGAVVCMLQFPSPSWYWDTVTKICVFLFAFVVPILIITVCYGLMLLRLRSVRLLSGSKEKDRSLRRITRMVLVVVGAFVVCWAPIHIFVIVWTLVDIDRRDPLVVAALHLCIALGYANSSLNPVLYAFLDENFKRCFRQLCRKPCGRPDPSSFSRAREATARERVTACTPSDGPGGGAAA
Chain of Beta-2 adrenergic receptor (P07550 whole entry): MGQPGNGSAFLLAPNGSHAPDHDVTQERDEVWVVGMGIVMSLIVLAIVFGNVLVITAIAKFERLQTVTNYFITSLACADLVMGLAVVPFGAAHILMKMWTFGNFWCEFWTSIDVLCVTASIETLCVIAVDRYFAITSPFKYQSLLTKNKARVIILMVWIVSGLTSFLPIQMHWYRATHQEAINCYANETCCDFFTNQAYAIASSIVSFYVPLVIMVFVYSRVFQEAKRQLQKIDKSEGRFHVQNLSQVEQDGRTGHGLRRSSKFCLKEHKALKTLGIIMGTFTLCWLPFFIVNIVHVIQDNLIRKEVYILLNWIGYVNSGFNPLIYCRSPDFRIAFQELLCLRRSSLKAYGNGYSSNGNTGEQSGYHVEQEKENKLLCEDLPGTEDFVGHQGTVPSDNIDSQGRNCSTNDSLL
Chain of Muscarinic acetylcholine receptor M1 (P11229 whole entry): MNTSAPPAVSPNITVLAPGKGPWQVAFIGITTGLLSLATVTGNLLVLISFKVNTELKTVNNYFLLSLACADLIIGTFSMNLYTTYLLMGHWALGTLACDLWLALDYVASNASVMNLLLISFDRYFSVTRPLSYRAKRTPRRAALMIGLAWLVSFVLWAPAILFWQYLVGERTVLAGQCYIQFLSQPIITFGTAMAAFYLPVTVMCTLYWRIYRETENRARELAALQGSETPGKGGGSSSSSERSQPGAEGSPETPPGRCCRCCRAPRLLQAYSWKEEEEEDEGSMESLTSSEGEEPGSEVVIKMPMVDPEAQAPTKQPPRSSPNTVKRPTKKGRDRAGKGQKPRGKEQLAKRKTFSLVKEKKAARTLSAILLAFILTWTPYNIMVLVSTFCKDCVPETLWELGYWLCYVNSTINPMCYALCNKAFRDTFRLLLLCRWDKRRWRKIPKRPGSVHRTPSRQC
Chain of Cholecystokinin receptor type A (P32238 whole entry): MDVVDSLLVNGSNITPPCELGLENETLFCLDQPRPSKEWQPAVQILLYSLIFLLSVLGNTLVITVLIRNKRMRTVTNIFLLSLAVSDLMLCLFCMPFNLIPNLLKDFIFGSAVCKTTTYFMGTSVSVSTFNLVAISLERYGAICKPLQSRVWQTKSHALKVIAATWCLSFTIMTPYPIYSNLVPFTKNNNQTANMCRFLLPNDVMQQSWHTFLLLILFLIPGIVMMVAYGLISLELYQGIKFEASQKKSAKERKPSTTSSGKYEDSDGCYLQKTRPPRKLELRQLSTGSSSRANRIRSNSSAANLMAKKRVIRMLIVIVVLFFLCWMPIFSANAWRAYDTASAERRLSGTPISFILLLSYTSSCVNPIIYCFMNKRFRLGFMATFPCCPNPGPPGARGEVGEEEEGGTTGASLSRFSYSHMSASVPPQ
Chain of Alpha-2A adrenergic receptor (P08913 whole entry): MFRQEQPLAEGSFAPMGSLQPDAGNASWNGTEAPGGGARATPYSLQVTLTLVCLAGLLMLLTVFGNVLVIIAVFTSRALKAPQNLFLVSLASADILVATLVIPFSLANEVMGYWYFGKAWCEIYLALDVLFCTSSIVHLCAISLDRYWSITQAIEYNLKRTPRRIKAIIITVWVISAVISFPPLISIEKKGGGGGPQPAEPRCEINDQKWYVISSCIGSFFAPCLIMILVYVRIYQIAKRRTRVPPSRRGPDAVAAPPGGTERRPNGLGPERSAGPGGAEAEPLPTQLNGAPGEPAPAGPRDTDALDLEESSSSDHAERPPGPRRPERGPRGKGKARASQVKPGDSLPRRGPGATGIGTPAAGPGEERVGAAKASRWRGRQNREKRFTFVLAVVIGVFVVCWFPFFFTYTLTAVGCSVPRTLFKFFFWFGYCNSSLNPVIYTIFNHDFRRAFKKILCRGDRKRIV
Chain of 5-hydroxytryptamine receptor 1D (P28221 whole entry): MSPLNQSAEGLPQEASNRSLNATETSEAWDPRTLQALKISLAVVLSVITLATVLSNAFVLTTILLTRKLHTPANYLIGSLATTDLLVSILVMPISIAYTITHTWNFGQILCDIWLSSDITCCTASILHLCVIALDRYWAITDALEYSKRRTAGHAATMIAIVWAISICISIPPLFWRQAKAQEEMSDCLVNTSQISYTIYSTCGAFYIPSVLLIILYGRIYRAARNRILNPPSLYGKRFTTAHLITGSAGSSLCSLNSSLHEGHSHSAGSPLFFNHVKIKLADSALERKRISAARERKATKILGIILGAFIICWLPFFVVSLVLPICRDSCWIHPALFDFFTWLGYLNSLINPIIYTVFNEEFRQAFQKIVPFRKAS
Chain of Vasopressin V1a receptor (P37288 whole entry): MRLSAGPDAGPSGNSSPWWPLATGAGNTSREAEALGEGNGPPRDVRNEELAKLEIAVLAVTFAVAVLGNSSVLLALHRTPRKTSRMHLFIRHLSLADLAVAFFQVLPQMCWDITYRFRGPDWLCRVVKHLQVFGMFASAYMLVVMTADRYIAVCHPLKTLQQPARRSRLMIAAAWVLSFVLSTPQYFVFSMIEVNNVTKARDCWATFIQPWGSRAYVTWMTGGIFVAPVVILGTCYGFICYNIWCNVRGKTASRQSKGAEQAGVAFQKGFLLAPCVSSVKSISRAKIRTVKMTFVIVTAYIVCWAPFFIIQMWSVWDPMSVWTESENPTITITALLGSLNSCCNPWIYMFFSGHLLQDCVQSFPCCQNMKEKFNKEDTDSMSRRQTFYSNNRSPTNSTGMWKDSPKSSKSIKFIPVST

## Cc1cn([C@H](C)CC#N)c(=O)c2cc(Cn3nc(C(F)F)cc3Cl)nn12
[1]
  inhibition: 10.6%
[2]; read-out: Ki
  Ki: 9.53 µM
[2]; read-out: pKi (converted)
  Ki: 9.55 µM
[3]
  IC50: > 10 µM
[4]
  inhibition: 6.65%
[5]
  inhibition: 33%
[6]
  IC50: > 10 µM
Histamine H1 receptor [7]
  inhibition: 31.7%
[8]
  EC50: > 9.6 µM (not active)
[9]
  EC50: > 10 µM
  IC50: > 10 µM
[10]
  IC50: 7.9 µM
[11]
  IC50: > 10 µM
[12]
  EC50: > 10 µM
  IC50: > 10 µM
Acetylcholinesterase
  IC50: > 10 µM
[13]
  inhibition: 25.2%
[14]
  EC50: > 10 µM
  IC50: > 10 µM
Histamine H1 receptor [15]
  EC50: > 10 µM
  IC50: > 10 µM
[16]
  Ki: > 10 µM
  pKi: < 5
[17]
  IC50: > 10 µM
[18]
  EC50: > 10 µM
  IC50: > 10 µM
[19]
  EC50: > 30 µM (not active)
[20]
  inhibition: 4.09%
[21]
  IC50: > 10 µM
D(2) dopamine receptor [22]
  inhibition: 9.18%
Rattus norvegicus
  inhibition: 83.2%
[23]
  inhibition: 54.8%
[24]
  EC50: > 10 µM
  IC50: > 10 µM
[25]
  inhibition: 19.3%
D(2) dopamine receptor [26]
  EC50: > 10 µM
  IC50: > 10 µM
[27]
  inhibition: -4.95%
[28]
  inhibition: -3.8%
[29]
  IC50: > 10 µM
[30]
  IC50: > 10 µM
[31]
  inhibition: 6.16%
[32]
  EC50: > 10 µM
  IC50: > 10 µM
[33]
  IC50: > 10 µM
[34]
  inhibition: 17.9%
[35]
  EC50: > 10 µM
  IC50: > 10 µM
D(1A) dopamine receptor
  EC50: > 10 µM
  IC50: > 10 µM
Histamine H2 receptor
  inhibition: 3.64%
Vasopressin V1a receptor
  EC50: > 10 µM
  IC50: > 10 µM
[36]
  EC50: > 10 µM
  IC50: > 10 µM
[37]
  inhibition: -4%
[38]
  EC50: > 10 µM
  IC50: > 10 µM
[39]
  inhibition: -5.37%
[40]
  inhibition: 0.11%
